Reference: ChEMBL document CHEMBL4616601, “Meeting organometallic chemistry with drug discovery: CH activation enabled discovery of a new ring system of 12H-Indazolo[2,1-a]cinnolin-12-ones with anti-proliferation activity” (Bioorg Med Chem Lett, 2020)
Calls of active or inactive are those of the source. No rule for the calls is given here.

Each molecule was assayed on PC-3 (assay: Antiproliferative activity against human PC3 cells assessed as inhibition of cell viability at 0.5 to 5 uM after 72 hrs by CCK8 assay).
Format: functional, cell-based
For `CCOC(=O)c1c(-c2ccc(F)cc2)n2c3ccccc3c(=O)n2c2ccccc12`, the Activity was “Active”.
In the case of `CCOC(=O)c1c(-c2ccccc2)n2c3ccccc3c(=O)n2c2ccc(-c3ccccc3)cc12`, the Activity is reported as “Active”.
`CCOC(=O)c1c(C)n2c3ccccc3c(=O)n2c2ccc(C)cc12` was tested, and the Activity was “Active”.
In the case of `COP(=O)(OC)c1c(C)n2c3ccccc3c(=O)n2c2ccccc12`, the Activity is reported as “inactive”.
In the case of `CCOC(=O)c1c(-c2ccccc2)n2c3ccccc3c(=O)n2c2ccc(C#N)cc12`, the Activity is reported as “Active”.
In the case of `CCOC(=O)c1c(C)n2c3ccccc3c(=O)n2c2ccc(Cl)cc12`, the Activity is reported as “Active”.
`CCOC(=O)c1c(-c2ccc(C)cc2)n2c3ccccc3c(=O)n2c2ccccc12` was tested, and the Activity was “Active”.
For `Cc1c(C(=O)OCCO)c2ccccc2n2c(=O)c3ccccc3n12`, the Activity was “inactive”.
With `CCOC(=O)c1c(C)n2c3ccccc3c(=O)n2c2ccccc12` the Activity was “Active”.
With `COC(=O)c1c(C)n2c3ccccc3c(=O)n2c2cc3ccccc3cc12` the Activity was “Active”.
`O=C(OCCO)c1c(-c2ccccc2)n2c3ccccc3c(=O)n2c2ccccc12` was tested, and the Activity was “inactive”.
For `COc1ccc2c(c1)c1c(n3c4ccccc4c(=O)n23)CCC1=O`, the Activity was “Active”.
For `COc1cccc2c3c(n4c5ccccc5c(=O)n4c12)CCC3=O`, the Activity was “Active”.
With `CCOC(=O)c1c(-c2ccccc2)n2c3ccccc3c(=O)n2c2ccc(I)cc12` the Activity was “Active”.
In the case of `CCOC(=O)c1c(C)n2c3ccccc3c(=O)n2c2cc(OC)cc(OC)c12`, the Activity is reported as “Active”.
With `O=C1NCCc2c1c1ccccc1n1c(=O)c3ccccc3n21` the Activity was “Active”.
`CCOC(=O)c1c(-c2ccccc2)n2c3ccccc3c(=O)n2c2ccccc12` was tested, and the Activity was “Active”.
`CCOC(=O)c1c(-c2ccc(OC)cc2)n2c3ccccc3c(=O)n2c2ccccc12` was tested, and the Activity was “Active”.
With `CCOC(=O)c1c(-c2cccc(OC)c2)n2c3ccccc3c(=O)n2c2ccccc12` the Activity was “Active”.
With `CCc1c(C(=O)OC)c2ccccc2n2c(=O)c3ccccc3n12` the Activity was “inactive”.
`COc1ccc2c(c1)c1c(n3c4ccccc4c(=O)n23)CCCC1=O` was tested, and the Activity was “Active”.
In the case of `CCc1ccc2c(c1)c(C(=O)OC)c(C)n1c3ccccc3c(=O)n21`, the Activity is reported as “Active”.
For `CCOC(=O)c1c(C)n2c3ccccc3c(=O)n2c2ccc(I)cc12`, the Activity was “Active”.
For `CCOC(=O)c1c(-c2ccccc2)n2c3ccc(OC)cc3c(=O)n2c2ccccc12`, the Activity was “Active”.
For `CCOC(=O)c1c(-c2ccco2)n2c3ccccc3c(=O)n2c2ccccc12`, the Activity was “Active”.
`CCOC(=O)c1c(-c2ccccc2)n2c3ccccc3c(=O)n2c2ccc(Br)cc12` was tested, and the Activity was “Active”.
With `O=C1CCc2c1c1cc(Br)ccc1n1c(=O)c3ccccc3n21` the Activity was “Active”.
In the case of `COc1cc2c(c(OC)c1OC)c1c(n3c4ccccc4c(=O)n23)CCC1=O`, the Activity is reported as “Active”.
For `CCOC(=O)c1c(-c2ccccc2)n2c3ccc(F)cc3c(=O)n2c2ccccc12`, the Activity was “Active”.
`CCOC(=O)c1c(-c2ccccc2)n2c3ccccc3c(=O)n2c2ccc(F)cc12` was tested, and the Activity was “Active”.
In the case of `O=C1CCc2c1c1c3c(ccc1n1c(=O)c4ccccc4n21)OCO3`, the Activity is reported as “Active”.
In the case of `COC(=O)c1c(C)n2c3ccccc3c(=O)n2c2ccc(OC(F)(F)F)cc12`, the Activity is reported as “Active”.
For `O=C1CCc2c1c1cc(Cl)ccc1n1c(=O)c3ccccc3n21`, the Activity was “Active”.
In the case of `CCOC(=O)c1c(-c2ccccc2)n2c3ccccc3c(=O)n2c2cc(OC)cc(OC)c12`, the Activity is reported as “Active”.
For `O=C1CCCc2c1c1ccccc1n1c(=O)c3ccccc3n21`, the Activity was “Active”.
With `COc1cc(OC)c2c3c(n4c5ccccc5c(=O)n4c2c1)CCC3=O` the Activity was “Active”.
With `CCOC(=O)c1c(C)n2c3ccccc3c(=O)n2c2ccc(OC)cc12` the Activity was “Active”.
In the case of `CCOC(=O)c1c(C)n2c3ccccc3c(=O)n2c2ccc(Br)cc12`, the Activity is reported as “Active”.
In the case of `O=C1CCc2c1c1cc(I)ccc1n1c(=O)c3ccccc3n21`, the Activity is reported as “Active”.
In the case of `CCOC(=O)c1c(C)n2c3ccccc3c(=O)n2c2ccc(F)cc12`, the Activity is reported as “Active”.
With `O=C1CCc2c1c1ccccc1n1c(=O)c3ccccc3n21` the Activity was “Active”.
